Test results as given in patent publication US20210317454A1, “USE OF A TLR9 AGONIST IN METHODS FOR TREATING COVID-19” (priority 2020, published 2021).
Entries after “also recorded” stand apart in the source; their conditions may differ. Read-outs that look alike come from different tables or passages of the source.

How the values were obtained:
SARS-CoV2 [1] = type: cell-based
SARS-CoV2 [2] = settings: for toxicity in mice: intranasal 2.5 mg/kg, 8 BL6 mice
[3] = tested on: mediastinal lymph node immune cells; type: in vivo, BL6 mice; settings: both pre and post-infection administration; B cells, CD4+, CD8+, granulocytes, macrophages, dendritic cells
HCV = settings: cited from earlier work
tumor microenvironment = settings: cited from earlier work
[4] = tested on: B16. F10 melanoma mouse models of colon carcinoma pulmonary metastasis; settings: intranasal administration at very low doses compared with subcutaneous; cited from earlier work
[5] = tested on: B16. F10 melanoma pulmonary metastasis; settings: intranasal versus subcutaneous; cited from earlier work
Calu3 cells = settings: dilutions above this excluded from analyses of conditions 1 and 2

tilsotolimod: phosphorothioate oligonucleotide agonist of TLR9, sequence 5LTCG1AACG1TTCG1-X-G1CTTG1CAAG1CT-5′, X glycerol linker, G1 2′-deoxy-7-deazaguanosine (SEQ ID NO. 1) (DNA TCGAACGTTCGGCTTGCAAGCT; phosphorothioate, 7-deazaG, glycerol-linked 3'-3' dimer; (3)..(3) 2′-deoxy-7-deazaguanosine; (7)..(7) 2′-deoxy-7-deazaguanosine; (11)..(12) Linked by is a glycerol linker; (11)..(11) 2′-deoxy-7-deazaguanosine; (12)..(12) 2′-deoxy-7-deazaguanosine; (16)..(16) 2′-deoxy-7-deazaguanosine; (20)..(20) 2′-deoxy-7-deazaguanosine)
antiviral activity compared with controls (SARS-CoV2 [1]; treatment condition 1: 24 h pre-treatment, then infection for 48 hours): None of the serial dilutions for treatment condition 1 (tilsotolimod 24 h pre-treatment) resulted in significant antiviral activity | reduction in TCID50 (SARS-CoV2 [1]; treatment condition 2: co-treatment with SARS-CoV2 for 48 hours, most effective dilution 0.41 μM): ~1 log | reduction in TCID50 (SARS-CoV2 [1]; treatment condition 3: supernatant of 24 h pretreated Calu3 cells added to fresh cells then infected, 1:10 serial dilution (33 μM)): ~3 log | infectious SARS-CoV2 titer (TCID50/Lung) (SARS-CoV2 [2]; intranasal 2.5 mg/kg one day after virus exposure, lungs three days post-infection): reduced infection, although not statistically significant | toxicity in mice (SARS-CoV2 [2]; post-treatment group): No toxicity was observed | toxicity in mice (SARS-CoV2 [2]; pre-treatment group): one mouse died, and two showed signs of reduced mobility | number of immune cells in the mediastinal lymph nodes [3]: robust infiltration of immune cells; also recorded: robust changes in the number of immune cells | viral load reductions (HCV; 0.16 mg/kg twice weekly plus ribavirin compared with pegIFN-α2a plus ribavirin): greater | rapid viral response (HCV; HCV-infected patients, all dose groups): none of the patients achieved rapid viral response | tolerability (HCV; subcutaneous 0.08, 0.16, 0.32 mg/kg once weekly and 0.16 mg/kg twice weekly, 4 weeks, with ribavirin): well tolerated with no discontinuations due to treatment-emergent adverse events | cytokine storm (HCV; tilsotolimod trials involving HCV): cytokine storm was not observed | Type I IFN pathway and dendritic cell maturation (tumor microenvironment; IFNα gene signature, MHC class I expression, patient biopsies): Activation of the Type I IFN pathway (induction of an IFNα gene signature) followed by maturation of dendritic cells | time to immune effects in the tumor microenvironment (tumor microenvironment; biopsies after receiving tilsotolimod): ≤ 24 h | CD8+ cytotoxic T lymphocytes and tumor response (tumor microenvironment; injected and non-injected tumors): systemic increases in CD8+ cytotoxic T lymphocytes (CTLs) with subsequent reduction of both injected and non-injected tumors | tumor-specific CTLs in tracheobronchial lymph nodes [4]: significant increase | antitumor potency of intranasal relative to subcutaneous treatment [5]: approximately 25 times | concentration above which tilsotolimod induced toxicity (Calu3 cells): above 3 μM
